Reference: paper PMC8803906, “Metabolite Identification and Pharmacokinetic Behavior of Diaveridine in the Plasma of Pigs and Chickens Based on Radioactive Tracing Coupled With LC/MS-IT-TOF Assay” (Frontiers in Veterinary Science, 2022)
“Also recorded” adds a separate entry of the source. Read-outs that look alike come from different tables or passages of the source.

Key:
in vivo [1] = details: for Radioactive compound detected/identified in plasma / Concentration in plasma: single oral ^3H-DVD 10 mg/kg BW; for t1/2 (elimination half-life): non-compartmental; for Concentration in plasma: pigs
Excerpt: (§1) Four healthy castrated male pigs (Landrace/Doric Cross, 60-d-old, 30 ± 2 kg) were supplied by the China Breeding Pig Testing Center of Huazhong Agricultural University (Wuhan, China). Six healthy Cobb 500 broiler chickens (three female and three male, 40-d-old, 2.5 ± 0.1 kg) were purchased from Wuhan Chia Tai chicken farm (Wuhan, China). All animals were maintained under standard environmental conditions by using normal husbandry practices and were acclimatized for 1 week. The animals were fed a commercial standard diet and water ad libitum, but were fasted overnight before dose administration and up to 4 h after dose administration. All animal care and experimental protocols were conducted in accordance with the Guide for the Care and Use of Laboratory Animals of Hubei Provincial Laboratory Animal Public Service Center (permit number SYXK 2013-0044) and approved by the Ethics Committee of Huazhong Agricultural University.
(§2) Pigs (n = 4) and chickens (n = 6) were weighed individually and given a single dose of 10 mg/kg BW ^3H-DVD with a specific activity of 0.23 Ci/g. The ^3H-DVD solution was prepared by accurately mixing ^3H-DVD and non-labeled DVD at a mass ratio of 1:96 and diluting it with 0.5% methylcellulose to make a homogeneous suspension with a concentration of 25 mg/ml. The suspension was administered by gastric gavage using a soft stomach tube connected to an injection syringe. About 1.5 ml of blood was collected into heparinized tubes from the anterior venae cavae of pig and the wing veins of chicken at different time points. For pigs, blood was collected before administration and 0.17, 0.33, 0.5, 0.67, 1, 1.5, 2, 4, 6, 8, 12, 24, 48, 72, 168, and 336 h after oral treatment. For chickens, blood was collected before administration and 0.25, 0.5, 1, 1.5, 2, 4, 6, 8, 12, 24, 36, 48, 72, 168, and 336 h after oral dosing. Plasma samples were collected after centrifugation at 4°C and 2,254 × g for 10 min and were stored at −20°C until analysis.
(§3) Plasma samples were completely thawed at room temperature. Each sample was divided into two parts, one was used for the assay of total radioactivity, and the other was subjected to a MCX Solid Phase Extraction (SPE) procedure for the qualitative and quantitative analysis of DVD-related metabolites.
(§4) The total radioactivity assay was conducted in accordance with a previous study with a few modifications ([20]). Briefly, 50 μl of plasma was mixed with 50 μl of 0.1 mol/L EDTA-Na and 50 μl of 30% H2O2 at 50°C in a shaking water bath for 2 h for bleaching. The obtained transparent liquid was mixed with 10 ml of Ultima Gold™ scintillation fluid and was analyzed directly using a Packard Tri-Carb 2900 TR liquid scintillation counter (PerkinElmer Life and Analytical Sciences, Waltham, MA, USA). The scintillation counter data were automatically corrected for counting efficiency using an instrument-stored quench curve that was drawn with a series of sealed quenched ^14C standards. All the samples were analyzed in duplicate and the actual radioactivity of each sample was calculated by subtracting the […].
(§5) A 500 μl plasma sample was adjusted to pH 2.8–3.2 with 1 ml of 1 M hydrochloric acid (HCl), and a […] aliquot of the mixture was placed in a MCX cartridge preconditioned with 3 ml of methanol followed by 3 ml of 0.1 mol/L HCl water. The cartridge was washed with 3 ml of 0.1 mol/L HCl water and then eluted with 5 ml NH4OH/methanol (8:92, v:v). The effluent was concentrated to dryness under a stream of nitrogen at 40°C. The residue was reconstituted in 250 μl of methanol-water (1:9, v:v) before injection onto the LC-v.ARC/MS-IT-TOF system for metabolite identification and quantitation.
(§6) Measurement of total radioactivity in each sample was conducted using a Packard Tri-Carb 2900 TR liquid scintillation counter. The detection time was 10 min for two cycles.

in vivo [2] = details: for Radioactive compound detected/identified in plasma / Concentration in plasma: single oral ^3H-DVD 10 mg/kg BW; for Concentration in plasma: chickens
Excerpt: as §1, §2, §3, §4, §5, §6

[3] = system: tester strain TA100 and TA98; design: method as in PMID 1922158, PMID 26397222; details: cited from earlier work
[4] = pigs, cited from earlier work
[5] = chickens, cited from earlier work
[6] = design: method as in PMID 26212255; details: cited from earlier work
[7] = design: method as in PMID 22161732; details: pig liver microsomes incubated with DVD; cited from earlier work
[8] = design: method as in PMID 4650364; details: urine at 8 h after a single oral dose of 10 mg/kg BW TMP; cited from earlier work
[9] = male, Landrace/Doric Cross, pig, in vivo, po, 10 mg/kg
[10] = pig plasma, oral ^3H-DVD 10 mg/kg BW
[11] = both, Cobb 500 broiler, in vivo, po, 10 mg/kg
[12] = chicken plasma, oral ^3H-DVD 10 mg/kg BW
[13] = HPLC-UV method, previous studies

COc1ccc(Cc2cnc(N)nc2N)cc1OC [D0, 5-[(3′,4′-dimethoxyphenyl)methyl]-2,4-pyrimidinediamine, reference compound]
Tmax (time to Cmax from time zero) (in vivo [1]; male, Landrace/Doric Cross, pig, in vivo): 2.0 ± 0.0 h | concentration at 168 h (in vivo [1]; male, Landrace/Doric Cross, pig, in vivo, 10 mg/kg BW): 60 ± 20 ng/mL | AUC0−∞ (in vivo [1]; male, Landrace/Doric Cross, pig, in vivo, po): 33900 ng·h/mL | AUC(0-inf) (in vivo [1]; [9]): 33900 ± 5810 ng·h/mL | ClB (total body clearance) (in vivo [1]; [9]): 5 ± 0.83 mL/min/kg | Cmax (in vivo [1]; [9]): 490 ± 20 ng/mL | MRT inf (in vivo [1]; [9]): 93 ± 12.6 h | MRT last (in vivo [1]; [9]): 57.3 ± 1.72 h | half-life (in vivo [1]; [9]): 66.4 ± 10.1 h | Tmax (time to Cmax from time zero) (in vivo [1]; [10]): 2 h | Radioactive compound detected/identified in plasma (in vivo [1]; pig plasma): identified; also recorded: detected | Time at which DVD was still detected in plasma (in vivo [1]; pig plasma, this study): 168 h | Tmax (time to Cmax from time zero) (in vivo [2]; both, Cobb 500 broiler, chicken, in vivo): 2.0 ± 0.0 h | concentration at 168 h (in vivo [2]; both, Cobb 500 broiler, chicken, in vivo, 10 mg/kg BW): 90 ± 30 ng/mL | AUC0−∞ (in vivo [2]; both, Cobb 500 broiler, chicken, in vivo, po): 55300 ng·h/mL | AUC(0-inf) (in vivo [2]; [11]): 55300 ± 11500 ng·h/mL | ClB (total body clearance) (in vivo [2]; [11]): 3.17 ± 0.67 mL/min/kg | Cmax (in vivo [2]; [11]): 1550 ± 390 ng/mL | MRT inf (in vivo [2]; [11]): 66.2 ± 10.7 h | MRT last (in vivo [2]; [11]): 43.7 ± 2.42 h | half-life (in vivo [2]; [11]): 48.3 ± 12.8 h | Tmax (time to Cmax from time zero) (in vivo [2]; [12]): 2 h | Radioactive compound detected/identified in plasma (in vivo [2]; chicken plasma): identified; also recorded: detected | Time at which DVD was still detected in plasma (in vivo [2]; chicken plasma, this study): 168 h | Mutagenicity ([3]; strain TA100 after metabolic activation with hamster S9 mix): mutagenic | Mutagenicity ([3]; tester strain TA100 and TA98, presence and absence of rat S9 mix): not mutagenic | Cmax [4, 13]: 430 ng/mL | Tmax [4, 13]: 1.04 h | Time at which DVD was still detected in plasma ([4]; HPLC-UV, ref Li et al. 15): 6 h | Cmax [5, 13]: 1450 ng/mL | Tmax [5, 13]: 3.25 h | Time at which DVD was still detected in plasma ([5]; HPLC-UV, ref Li et al. 15): 24 h | Withdrawal period ([6]; kidney): 6.74 days | Withdrawal period ([6]; liver): 4.94 days | Withdrawal period ([6]; muscle): 4.77 days | Withdrawal period ([6]; skin with fat): 4.58 days

COc1ccc(Cc2cnc(N)nc2N)cc1O [D1, 3′-desmethyl-DVD]
AUC0−∞ (in vivo [1]; [10]): 3720 ± 620 ng·h/mL | ClB (total body clearance) (in vivo [1]; [10]): 46 ± 7.67 mL/min/kg | Cmax (maximum drug concentration) (in vivo [1]; [10]): 240 ± 50 ng/mL | MRT0−∞ (in vivo [1]; [10]): 22.93 ± 1.28 h | MRTLast (in vivo [1]; [10]): 15.23 ± 0.25 h | Tmax (time to Cmax from time zero) (in vivo [1]; [10]): 2 h | Vd (apparent volume of distribution) (in vivo [1]; [10]): 70.38 ± 6.67 L/kg | t1/2 (elimination half-life) (in vivo [1]; [10]): 17.86 ± 1.30 h | Radioactive compound detected/identified in plasma (in vivo [1]; pig plasma): identified; also recorded: detected | Concentration in plasma (in vivo [1]; 0.5 h, ND = below the LOQ): 120 ± 30 ng/mL | Concentration in plasma (in vivo [1]; 0.67 h): 150 ± 20 ng/mL | Concentration in plasma (in vivo [1]; 1 h): 160 ± 40 ng/mL | Concentration in plasma (in vivo [1]; 1.5 h): 190 ± 30 ng/mL | Concentration in plasma (in vivo [1]; 2 h): 240 ± 60 ng/mL | Concentration in plasma (in vivo [1]; 4 h): 160 ± 20 ng/mL | Concentration in plasma (in vivo [1]; 6 h): 100 ± 20 ng/mL | Concentration in plasma (in vivo [1]; 8 h): 80 ± 10 ng/mL | Concentration in plasma (in vivo [1]; 12 h): 80 ± 10 ng/mL | Concentration in plasma (in vivo [1]; 24 h): 60 ± 10 ng/mL | Concentration in plasma (in vivo [1]; 48 h): 20 ± 10 ng/mL | Metabolite detected in vitro [7]: detected

COc1ccc(Cc2cnc(N)nc2N)cc1OC1OC(C(=O)O)C(O)C(O)C1O (centres unmarked) [D2, monoglucuronide of 3′-desmethyl-DVD]
AUC0−∞ (in vivo [1]; [10]): 17580 ± 2320 ng·h/mL | ClB (total body clearance) (in vivo [1]; [10]): 9.67 ± 1.3 mL/min/kg | Cmax (maximum drug concentration) (in vivo [1]; [10]): 1380 ± 40 ng/mL | MRT0−∞ (in vivo [1]; [10]): 23.01 ± 1.48 h | MRTLast (in vivo [1]; [10]): 14.91 ± 0.41 h | Tmax (time to Cmax from time zero) (in vivo [1]; [10]): 2 h | Vd (apparent volume of distribution) (in vivo [1]; [10]): 15.39 ± 3.28 L/kg | t1/2 (elimination half-life) (in vivo [1]; [10]): 18.26 ± 1.70 h | Radioactive compound detected/identified in plasma (in vivo [1]; pig plasma): identified; also recorded: detected | Concentration in plasma (in vivo [1]; 0.17 h, ND = below the LOQ): 100 ± 30 ng/mL | Concentration in plasma (in vivo [1]; 0.33 h, ND = below the LOQ): 260 ± 110 ng/mL | Concentration in plasma (in vivo [1]; 0.5 h, ND = below the LOQ): 520 ± 150 ng/mL | Concentration in plasma (in vivo [1]; 0.67 h): 610 ± 190 ng/mL | Concentration in plasma (in vivo [1]; 1 h): 690 ± 200 ng/mL | Concentration in plasma (in vivo [1]; 1.5 h): 1230 ± 40 ng/mL | Concentration in plasma (in vivo [1]; 2 h): 1380 ± 40 ng/mL | Concentration in plasma (in vivo [1]; 4 h): 660 ± 50 ng/mL | Concentration in plasma (in vivo [1]; 6 h): 500 ± 80 ng/mL | Concentration in plasma (in vivo [1]; 8 h): 410 ± 70 ng/mL | Concentration in plasma (in vivo [1]; 12 h): 350 ± 60 ng/mL | Concentration in plasma (in vivo [1]; 24 h): 270 ± 80 ng/mL | Concentration in plasma (in vivo [1]; 48 h): 90 ± 10 ng/mL | AUC0−∞ (in vivo [2]; [12]): 1730 ± 440 ng·h/mL | ClB (total body clearance) (in vivo [2]; [12]): 102 ± 26.3 mL/min/kg | Cmax (maximum drug concentration) (in vivo [2]; [12]): 270 ± 80 ng/mL | MRT0−∞ (in vivo [2]; [12]): 6.20 ± 0.18 h | MRTLast (in vivo [2]; [12]): 4.66 ± 0.17 h | Tmax (time to Cmax from time zero) (in vivo [2]; [12]): 2 h | Vd (apparent volume of distribution) (in vivo [2]; [12]): 32.45 ± 12.36 L/kg | t1/2 (elimination half-life) (in vivo [2]; chicken plasma, oral ^3H-DVD 10 mg/kg BW, non-compartmental): 3.56 ± 0.44 h | Radioactive compound detected/identified in plasma (in vivo [2]; chicken plasma): identified; also recorded: detected | Concentration in plasma (in vivo [2]; 1 h): 120 ± 30 ng/mL | Concentration in plasma (in vivo [2]; 1.5 h): 230 ± 30 ng/mL | Concentration in plasma (in vivo [2]; 2 h): 270 ± 90 ng/mL | Concentration in plasma (in vivo [2]; 4 h): 180 ± 60 ng/mL | Concentration in plasma (in vivo [2]; 6 h): 140 ± 50 ng/mL | Concentration in plasma (in vivo [2]; 8 h): 90 ± 30 ng/mL | Concentration in plasma (in vivo [2]; 12 h): 40 ± 10 ng/mL | Metabolite detected in vitro [7]: no D2 was found

COc1cc(Cc2cnc(N)nc2N)cc(OC)c1O [4′-demethylated TMP]
Content in urine [8]: 1%

COc1cc(Cc2cnc(N)nc2N)cc(O)c1OC [3′-demethylated TMP]
Content in urine [8]: > 30%
